Experimental data: US7585843B2, “Treatment of demyelinating autoimmune disease with modified ordered peptides” (Bayhill Therapeutics, Inc., priority 2003, dated 2009)
“Also recorded” adds a separate entry of the source. Read-outs that look alike come from different tables or passages of the source. Non-standard residues stand in square brackets, D forms with d. No end group written: not given here.

How the values were obtained:
[1] = test system: T cell lines from immunized mice; assay: Cytokine production by T cell lines from immunized mice (FIG. 6); format: cell-based; conditions: T cell lines from mice immunized with the antigen
Excerpt: OVA is known to cause an induction of Th1 type of T cells after immunization.
One of the mechanisms proposed for the efficacy of Copaxone in MS is the induction of Th2 type of antigen-specific T cells that are beneficial in treating the disease process.
In a similar protocol we immunized mice with D-ala modified ordered peptide, non-modified ordered peptide, and control peptides including Cop1 and ovalbumin (OVA). OVA is known to cause an induction of Th1 type of T cells after immunization.

[2] = test system: anti-MBP antibodies affinity-purified from CNS lesions; assay: Inhibition of autoantibody binding to MBP; parameters: species or system human; conditions: antibodies from CNS lesions of 12 post-mortem MS cases
Excerpt: Previously, we have compared the structural requirements for autoantibody recognition to those of T cell clones reactive to MBP p87-99. Anti-MBP antibodies were affinity-purified from CNS lesions of 12 post-mortem cases studied. The MBP p87-99 peptide was immunodominant in all cases and it inhibited autoantibody binding to MBP by more than 95%. Residues contributing to autoantibody binding were located in a 10-amino acid segment p86-95 ({SEQ ID NO:9} VVHFFKNIVT) that also contained the MHC-T cell receptor contact residues for T cells recognizing MBP in the context of DRB1*1501 and DQB1*0602. In the epitope center, the same residues, {SEQ ID NO:10} VHFFK, were important for T cell binding and MHC recognition. Recently, the crystal structure of HLA-DR2 with MBPp85-99 was solved, confirming the prediction that K91 is the major TCR contact residue, while F90 is a major anchor into the hydrophobic P4 pocket of the MHC molecule.

EAE in Lewis rats [3] = assay: Blocking of EAE induction in Lewis rats, peptide mixed into encephalitogenic emulsion (FIG. 5); format: in vivo, rat; conditions: 0.5 mg mixed into MBPp85-99/CFA emulsion, 12-13 animals
Method: FIG. 5 is a graph showing the blocking of induction of EAE by the substituted D-Ala form of the therapeutic ordered peptide. Lewis rats were injected with an emulsion of 0.1 mg of MBPp85-99 in complete Freund's adjuvant for EAE induction. Either of 0.5 mg MBP therapeutic ordered peptide EYYKEYYKEYYK, substituted MBP therapeutic ordered peptide D-Ala-EYYKEYYKEYYK-amide, or Copaxone was mixed into the encephalitogenic emulsion. Results are expressed as mean disease score of 12-13 animals.
(§1) EAE induction. Synthetic peptide MBPp85-99 was dissolved in PBS to a concentration of 2 mg/ml and emulsified with and equal volume of Incomplete Freund's Adjuvant (IFA), supplemented with 4 mg/ml heat-killed Mycobacterium tuberculosis H37Ra (Difco Laboratories, Detroit, Mich.). Rats were injected subcutaneously with 0.1 ml of the peptide emulsion. Experimental animals were scored as follows: 0, no clinical disease; 1, tail weakness or paralysis; 2, hind limb weakness; 3, hind limb paralysis; 4, forelimb weakness or paralysis; 5, moribund or dead animal.
The ability of therapeutic ordered peptide EYYKEYYKEYYK, modified therapeutic ordered peptide D-Ala-EYYKEYYKEYYK-amide, or Copaxone to treat a rat model of EAE was tested. A single 0.5 mg dose of each of these peptides was administered along with the encephalitogen (MBP 85-99 peptide in CFA) as an emulsion.

[4] = test system: PLPp139-151 specific T cell line; assay: T cell proliferation assay (FIG. 4); format: cell-based
Method: FIG. 4 is a graph showing the blocking by the therapeutic ordered peptide of T cell proliferation. The ability of MBP therapeutic ordered peptide (EYYKEYYKEYYK), substituted MBP therapeutic ordered peptide (D-Ala-EYYKEYYKEYYK-amide), or Copaxone to block the proliferation of a PLPp139-151 specific T cell line was measured in a proliferation assay.
The ability of therapeutic ordered peptide EYYKEYYKEYYK, modified therapeutic ordered peptide D-Ala-EYYKEYYKEYYK-amide, or Copaxone to block the proliferation of a PLPp139-151 specific T cell line was measured in a proliferation assay.

rat MHC class II = assay: Blocking of native peptide binding to MHC by FACS (FIG. 3), rat; conditions: biotinylated peptide on spleen APCs
Method: (§2) The ability of MBP therapeutic ordered peptide EYYKEYYKEYYK, substituted MBP therapeutic ordered peptide D-Ala-EYYKEYYKEYYK-amide, or Copaxone to block the binding of the native peptide to either a mouse or rat MHC was measured by FACS analysis.
(§3) Peptide binding to class II molecules was measured as follows. Briefly, APCs (antigen presenting cells) were purified from spleen cells by negative selection using magnetic beads (Dynal, Oslo, Norway) conjugated with antibodies specific for T cells (CD52), macrophages (CD45R), and NK cells (NKR-P1A) (Pharmingen, San Diego, Calif.). After selection, cells were plated at a concentration of 0.5×10^6 cells per well in flat bottom 96 well microtiter plates (Costar, Corning, N.Y.). Therapeutic ordered peptides were used as inhibitors are added to the wells at different concentrations (ranging from 0.01 to 0.24 mM) in a volume of 0.05 ml. After an hour of incubation at 37° C., 0.01 mM of biotinylated MBP, MOG, or PLP peptide was added. After four more hours of incubation, cells were harvested and binding of PE-Avidin to the cell surface was analyzed by FACS (Becton Dickinson, San Jose, Calif.). To determine the IC50 value of the therapeutic ordered peptide, for example EYYK, a linear regression curve was calculated using data points from 0.01 mM to […].

mouse MHC class II = assay: Blocking of native peptide binding to MHC by FACS (FIG. 3), mouse; conditions: biotinylated peptide on spleen APCs
Method: as §2, §3

EAE in mice = assay: Relapse rates in mice with ongoing EAE induced with PLPp139-151 (FIG. 2); format: in vivo; conditions: PLPp139-151-induced EAE; treated days 17, 29, 36; i.v., i.p. or s.c.; 0.5 or 0.05 mg per mouse; in mannitol
Method: FIG. 2 is a graph depicting the reduction in relapse rates in mice with EAE treated with ordered peptides. Animals were induced for EAE with an emulsion of 0.1 mg of PLPp139-151 in complete Freund's adjuvant (day 0). Mice were randomized into equal groups at the peak of disease and were treated at days 17, 29, and 36 after EAE induction with intravenous, intra-peritoneal or subcutaneous administration of EYYKEYYKEYYK (MBP therapeutic ordered peptide) or Copaxone at two different dosages, 0.5 mg per mouse or 0.05 mg per mouse. Both the MBP therapeutic ordered peptide and Copaxone were dissolved in mannitol.
Injection of ordered peptides containing TCR-MHC binding motifs reverse the development of EAE. In order to test the potential of the predicted sequences to revert the development of ongoing EAE we delivered a single dose of a PBS solution containing 0.5 mg of peptide in 0.25 ml. […] In addition, ordered peptide treatment was administered in a mouse model of ongoing-EAE (FIG. 2) at days 17, 29, and 36 after EAE induction with intravenous, intra-peritoneal or subcutaneous administration of EYYKEYYKEYYK (therapeutic ordered peptide) or Copaxone at two different dosages, 0.5 mg per mouse or 0.05 mg per mouse. Both the therapeutic ordered peptide and Copaxone were dissolved in mannitol.

EAE in Lewis rats [5] = assay: EAE treatment in Lewis rats, single dose at disease onset (FIG. 1); format: in vivo, rat; conditions: MBPp85-99-induced EAE, single intraperitoneal dose 0.5 mg in PBS at disease onset (day 10)
Method: FIG. 1 is a graph showing the prevention of EAE in rats treated with therapeutic ordered peptides. […] Animals were injected with an emulsion of 0.1 mg of MBPp85-99 in complete Freund's adjuvant for EAE induction. Ten days later, when the clinical manifestations of disease became apparent, a single intra-peritoneal dose of MBP therapeutic ordered peptide {SEQ ID NO:4} EYYKEYYKEYYK (squares), {SEQ ID NO:5} KYYKYYKYYKYY (triangles), or PBS (circles)was administered. Results are expressed as mean disease score of groups of six animals.
Animals. Female Lewis rats (6-8 weeks old), were purchased from Harlan Sprague Dawley (Indianapolis, Ind.)
as §1
EAE treatment. Rats previously immunized with MBPp85-99 for EAE induction were scored from day eight after peptide injection. […]

In the case of “OVA: ovalbumin, control known to cause an induction of Th1 type of T cells after immunization [reference compound]”, the IL4 production [1] is reported as “did not cause an increase in these cytokines” and the IL10 production [1] is reported as “did not cause an increase in these cytokines”.

For “MBP p87-99: myelin basic protein peptide 87-99, immunodominant epitope (SRPHLIRLFSRDA; UniProt P02686 87-99, looked up, fragment)”, the “inhibition of autoantibody binding to MBP” value [2] was “more than 95%”.

In the case of “D-Ala-EYYKEYYKEYYK-amide ([dA]EYYKEYYKEYYK-NH2; N-terminus assumed; SMILES C[C@@H](N)C(=O)N[C@@H](CCC(=O)O)C(=O)N[C@@H](Cc1ccc(O)cc1)C(=O)N[C@@H](Cc1ccc(O)cc1)C(=O)N[C@@H](CCCCN)C(=O)N[C@@H](CCC(=O)O)C(=O)N[C@@H](Cc1ccc(O)cc1)C(=O)N[C@@H](Cc1ccc(O)cc1)C(=O)N[C@@H](CCCCN)C(=O)N[C@@H](CCC(=O)O)C(=O)N[C@@H](Cc1ccc(O)cc1)C(=O)N[C@@H](Cc1ccc(O)cc1)C(=O)N[C@@H](CCCCN)C(N)=O) [substituted (modified) MBP therapeutic ordered peptide]”, the “blocking of EAE induction, mean disease score” value (EAE in Lewis rats [3]) is reported as “more effective in blocking EAE induction than the un-substituted therapeutic ordered peptide; also recorded: superiority of the D-Ala form of the ordered peptide over the non-substituted form; also recorded: nearly reaches the efficacy of Copaxone”, the IL4 production [1] is reported as “increased production of IL4 and IL10” and the IL10 production [1] is reported as “increased production of IL4 and IL10”. The “reduction in T cell proliferation” value [4] was “dose dependent reduction in T cell proliferation; also recorded: exceeds the reduction in T cell proliferation for either the unmodified ordered peptide or for Copaxone”, the “reduction in T cell proliferation” value ([4]; listed as D-Ala EYYK) was “dose dependent reduction in T cell proliferation; also recorded: exceeds the reduction in proliferation with either the unmodified ordered peptide or Copaxone” and the “reduction in T cell proliferation” value ([4]; listed as D-ala EYYK) was “more effective in blocking T cell proliferation than the unmodified EYYK”. The “blocking of binding of native MBP peptide to rat MHC class II (mean fluorescence intensity)” value (rat MHC class II) was “more effective in blocking either MHC than the non-D-ala form”, the “blocking of binding of native MBP peptide to rat MHC class II (mean fluorescence intensity)” value (rat MHC class II; listed as D-Ala EYYK) was “higher affinity of binding to these MHC's than the unmodified EYYK; also recorded: approaches the binding achieved by Copaxone” and the “blocking of binding of native MBP peptide to rat MHC class II (mean fluorescence intensity)” value (rat MHC class II; listed as D-ala-EYYK) was “comparable amount of inhibition”. For the same substance, the “blocking of binding of native PLP peptide to mouse MHC class II (mean fluorescence intensity)” value (mouse MHC class II) was “more effective in blocking either MHC than the non-D-ala form”, the “blocking of binding of native PLP peptide to mouse MHC class II (mean fluorescence intensity)” value (mouse MHC class II; listed as D-Ala EYYK) was “higher affinity of binding to these MHC's than the unmodified EYYK; also recorded: approaches the binding achieved by Copaxone” and the “blocking of binding of native PLP peptide to mouse MHC class II (mean fluorescence intensity)” value (mouse MHC class II; listed as D-ala-EYYK) was “comparable amount of inhibition”.

“EYYKEYYKEYYK [MBP therapeutic ordered peptide, motif [EYYK]n with n=3]” was tested, and the “relapse rates per mouse” value (EAE in mice) was “reduce relapse rates similarly”, the “blocking of binding of native MBP peptide to rat MHC class II (mean fluorescence intensity)” value (rat MHC class II) was “comparable amount of inhibition” and the “blocking of binding of native PLP peptide to mouse MHC class II (mean fluorescence intensity)” value (mouse MHC class II) was “comparable amount of inhibition”. For the same substance, the “EAE development, mean disease score” value (EAE in Lewis rats [5]) was “prevents the development of EAE; also recorded: effective in preventing and treating experimental autoimmune encephalomyelitis”.
